Experimental data taken from ChEMBL document CHEMBL1201862, “PubChem BioAssay data set” (2004).
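Test compounds were applied to cells in 96-well plates for 48 hours at 5 doses. The concentration for 50% growth inhibition is given as GI50.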 Active and inactive are the calls of the source. Rule as the data show it: active = GI50 up to about 1.1 µM and inactive = higher.

Legend:
Assay in all cases: growth of human tumour cells (NCI), 48 h
SNB-75 = test system: SNB-75
HCT-15 = test system: HCT-15
RXF 393 = test system: RXF 393
OVCAR-3 = test system: OVCAR-3
T47D = test system: T47D
K562 = test system: K562
SF-295 = test system: SF-295
NCI/ADR-RES = test system: NCI/ADR-RES
UACC-62 = test system: UACC-62
CCRF-CEM = test system: CCRF-CEM
SN12C = test system: SN12C
SW-620 = test system: SW-620
HL-60 = test system: HL-60
HCT-116 = test system: HCT-116
SK-MEL-5 = test system: SK-MEL-5
UACC-257 = test system: UACC-257
ACHN = test system: ACHN
A549 = test system: A549
NCI-H226 = test system: NCI-H226
HCC 2998 = test system: HCC 2998

Compound	GI50 (SNB-75)	GI50 (HCT-15) [µM]	GI50 (RXF 393)	GI50 (OVCAR-3)	GI50 (T47D)	GI50 (K562)	GI50 (SF-295)	GI50 (NCI/ADR-RES)	GI50 (UACC-62)	GI50 (CCRF-CEM)	GI50 (SN12C)	GI50 (SW-620)	GI50 (HL-60)	GI50 (HCT-116)	GI50 (SK-MEL-5)	GI50 (UACC-257)	GI50 (ACHN)	GI50 (A549)	GI50 (NCI-H226)	GI50 (HCC 2998)
Cn1c(=O)c2[nH]c(C3CC(=O)CC(c4nc5c([nH]4)c(=O)n(C)c(=O)n5C)N3)nc2n(C)c1=O (stereo not drawn)	> 100 µM (inactive)	> 100	> 100 µM (inactive)	> 100 µM (inactive)	> 100 µM (inactive)	72.8 µM (inactive)	> 100 µM (inactive)	> 100 µM (inactive)	> 100 µM (inactive)	38.3 µM (inactive)	> 100 µM (inactive)	> 100 µM (inactive)	> 100 µM (inactive)	> 100 µM (inactive)	> 100 µM (inactive)	> 100 µM (inactive)	> 100 µM (inactive)	> 100 µM (inactive)	> 100 µM (inactive)	–
CCOC(=O)CC(=O)Nc1cccc2nc[nH]c12	0.294 µM (active)	> 100	> 100 µM (inactive)	> 100 µM (inactive)	> 100 µM (inactive)	> 100 µM (inactive)	> 100 µM (inactive)	> 100 µM (inactive)	> 100 µM (inactive)	> 100 µM (inactive)	> 100 µM (inactive)	> 100 µM (inactive)	> 100 µM (inactive)	> 100 µM (inactive)	> 100 µM (inactive)	> 100 µM (inactive)	> 100 µM (inactive)	> 100 µM (inactive)	> 100 µM (inactive)	–
CSc1cc(Cl)c(C)cc1S(=O)(=O)NC(=O)NNc1ccc(F)cc1	> 100 µM (inactive)	> 100	> 100 µM (inactive)	> 100 µM (inactive)	> 100 µM (inactive)	> 100 µM (inactive)	> 100 µM (inactive)	> 100 µM (inactive)	–	–	> 100 µM (inactive)	> 100 µM (inactive)	–	> 100 µM (inactive)	> 100 µM (inactive)	–	66.8 µM (inactive)	> 100 µM (inactive)	> 100 µM (inactive)	30 µM (inactive)
O=CNC(Cc1c[nH]cn1)C(=O)O (stereo not drawn)	> 100 µM (inactive)	> 100	> 100 µM (inactive)	> 100 µM (inactive)	> 100 µM (inactive)	> 100 µM (inactive)	> 100 µM (inactive)	> 100 µM (inactive)	> 100 µM (inactive)	> 100 µM (inactive)	> 100 µM (inactive)	> 100 µM (inactive)	> 100 µM (inactive)	> 100 µM (inactive)	> 100 µM (inactive)	> 100 µM (inactive)	> 100 µM (inactive)	> 100 µM (inactive)	> 100 µM (inactive)	–
CCC1OC2C(CC=C(C)C)=C3OC(C)(O)C(C)(CC)C(O)C3=C3OC(=O)C=C1C32 (stereo not drawn)	–	33	–	–	29 µM (inactive)	10.8 µM (inactive)	45.8 µM (inactive)	42.8 µM (inactive)	26.7 µM (inactive)	33.6 µM (inactive)	–	39.4 µM (inactive)	–	26.6 µM (inactive)	28.4 µM (inactive)	33.9 µM (inactive)	38.3 µM (inactive)	37.6 µM (inactive)	55.1 µM (inactive)	27 µM (inactive)
c1ccc2sc(SCN(C3CCCCC3)C3CCCCC3)nc2c1	–	> 100	> 100 µM (inactive)	> 100 µM (inactive)	15.1 µM (inactive)	> 100 µM (inactive)	> 100 µM (inactive)	> 100 µM (inactive)	> 100 µM (inactive)	–	–	> 100 µM (inactive)	–	–	> 100 µM (inactive)	> 100 µM (inactive)	> 100 µM (inactive)	> 100 µM (inactive)	> 100 µM (inactive)	> 100 µM (inactive)
